According to patent US20200063169A1, “METHODS AND COMPOSITIONS FOR THE PRODUCTION OF LIPIDS” (THE UNIVERSITY OF BRITISH COLUMBIA, priority 2017, published 2020):

Legend:
FcrA [1] = assay: FcrA activity assays (spectrophotometric, NADPH oxidation / DTNB); format: biochemical, Rhodococcus jostii RHA1; conditions: for Specific Activity: 5 μM acyl-CoA, 200 μM NADPH, pH 7.0, 25° C.
Method: FcrA activity was evaluated using two spectrophotometric assays. Assays were performed at 25° C. in 1 mL 20 mM MOPS, 80 mM NaCl, pH 7.0 (I=0.1 M) containing 5 μM acyl-CoA and 200 μM NADPH. Reactions were initiated by the addition of FcrA to a final concentration of 0.5 to 2 μM. In one assay, the oxidation of NADPH was followed at 340 nm (E=6.3 mM mM^−1 cm^−1 [43]). In the second assay, the reaction mixture also contained 0.1 mg/mL DTNB, and the formation of NTB^2− was followed at 412 nm (E=14.15 mM^−1 cm^−1 for NTB^2−[44]). Reaction rates were calculated from progress curves using Cary WinUV Kinetics Application (Agilent). The pH-dependence of the reaction was evaluated using the DTNB assay and a series of 20 mM Good's buffers (MES, MOPS, HEPPS, or TAPS), 80 mM NaCl (I=0.1 M), pH 6 to 9.
Because related two-domain enzymes completely reduce acyl-CoAs to fatty alcohols and have been used in biotechnology applications, further efforts were focused on exploring the function of FcrA, To investigate the activity of FcrA, it was first produced as a C-terminally His-tagged protein in RHA1 and purified to greater than 95% apparent homogeneity (FIG. 4A). The molecular mass of FcrA-His6 was 73627 Da, which corresponds to the mass of the protein (73758 Da) less the N-terminal methionine (131 Da). Then, to evaluate the ability of FcrA to catalyze the formation of fatty alcohols, 1.4 μM FcrA was incubated with 400 μM NADPH and 100 μM oleoyl-CoA in 1 mL 20 mM Tris-HCl, pH 7.0, 50 mM NaCl for 20 h at room temperature. The reaction was quenched with 1 mL saturated NaCl and 100 μM of tetradecanol was added as a standard. […] No alcohol was detected in control reactions in which FcrA was omitted. […] As with previously characterized FARs, activity was maximal at pH 7.0. […] Among the tested substrates, FcrA had highest specific activity for stearoyl-CoA (C18-CoA), reducing it at a rate of 45±3 nmol/mg·min. The specific activity of FcrA dropped off with decreasing chain length of the acyl-CoA substrate (Table 2).

FcrA [2] = assay: FcrA fatty alcohol formation, reaction products analysed by GC/MS; format: biochemical, Rhodococcus jostii RHA1; conditions: 1.4 μM FcrA, 400 μM NADPH, 100 μM oleoyl-CoA, pH 7.0, 20 h, room temperature
Method: To analyze fatty alcohols produced in vitro, quenched reactions of 2 mL were extracted with 5 mL of 2:1 chloroform:methanol (v/v). The organic phase was collected, washed once with 1:1 H2O:methanol, and three times with H2O. The organic phase was removed and dried under nitrogen stream. The extract was suspended in pyridine and derivatized with […] for 1 h at 60° C. Derivatized extracts were analyzed by gas chromatography-mass spectrometry (GC/MS) as described below.
Analyses were performed using an Agilent 6890n gas chromatograph system fitted with an HP-5 MS 30 m×0.25 mm capillary column (Hewlett-Packard) and an Agilent 5973n mass-selective detector. […] WEs were further identified by comparison to an authentic stearyl stearate standard and were quantified using a standard curve generated using palmityl myristate (Nu-Chek Prep).
Because related two-domain enzymes completely reduce acyl-CoAs to fatty alcohols and have been used in biotechnology applications, further efforts were focused on exploring the function of FcrA, To investigate the activity of FcrA, it was first produced as a C-terminally His-tagged protein in RHA1 and purified to greater than 95% apparent homogeneity (FIG. 4A). […] No alcohol was detected in control reactions in which FcrA was omitted. […]

Structure (SMILES): CCCCCCCCCCCC(=O)SCCNC(=O)CCNC(=O)[C@H](O)C(C)(C)COP(=O)(O)OP(=O)(O)OC[C@H]1O[C@@H](n2cnc3c(N)ncnc32)[C@H](O)[C@@H]1OP(=O)(O)O [Lauroyl-CoA]
- Specific Activity (FcrA [1]; FcrA with acyl-CoA substrate): 1.5 ± 0.3 nmol/min/(mg protein)

Structure (SMILES): NC(=O)C1=CN([C@@H]2O[C@H](COP(=O)(O)OP(=O)(O)OC[C@H]3O[C@@H](n4cnc5c(N)ncnc54)[C@H](O)[C@@H]3O)[C@@H](O)[C@H]2O)C=CC1 [NADH]
- FcrA activity with cofactor in place of NADPH (FcrA [1]; NADPH substituted with NADH): no activity was detected

Structure (SMILES): CCCCCCCC/C=C\CCCCCCCC(=O)SCCNC(=O)CCNC(=O)[C@H](O)C(C)(C)COP(=O)(O)OP(=O)(O)OC[C@H]1O[C@@H](n2cnc3c(N)ncnc32)[C@H](O)[C@@H]1OP(=O)(O)O [Oleoyl-CoA]
- Specific Activity (FcrA [1]; FcrA with acyl-CoA substrate): 41 ± 1 nmol/min/(mg protein)
- rate of reduction by FcrA compared with stearoyl-CoA (FcrA [1]; monounsaturated acyl-CoA substrate): reduced at a similar rate to stearoyl-CoA
- conversion of acyl-CoA to fatty alcohol by FcrA (FcrA [2]): converted oleoyl-CoA to oleyl alcohol

Structure (SMILES): CCCCCCCCCCCCCCCC(=O)SCCNC(=O)CCNC(=O)[C@H](O)C(C)(C)COP(=O)(O)OP(=O)(O)OC[C@H]1O[C@@H](n2cnc3c(N)ncnc32)[C@H](O)[C@@H]1OP(=O)(O)O [Palmitoyl-CoA]
- Specific Activity (FcrA [1]; FcrA with acyl-CoA substrate): 7.0 ± 0.1 nmol/min/(mg protein)

Structure (SMILES): CCCCCCCCCCCCCCCCCC(=O)SCCNC(=O)CCNC(=O)[C@H](O)C(C)(C)COP(=O)(O)OP(=O)(O)OC[C@H]1O[C@@H](n2cnc3c(N)ncnc32)[C@H](O)[C@@H]1OP(=O)(O)O [Stearoyl-CoA]
- specific activity (rate of reduction by FcrA) (FcrA [1]; FcrA with acyl-CoA substrate): 45 ± 3 nmol/mg/min
- Specific Activity (FcrA [1]; FcrA with acyl-CoA substrate): 45 ± 3 nmol/min/(mg protein)
